Results published in patent publication US12606528B2, “Methods and materials for inhibiting NF-kB activity” (University of Pittsburgh - Of the Commonwealth System of …, priority 2019, dated 2026).
Read-outs that look alike come from different tables or passages of the source.

Legend:
NF-κB = NF-κB assay: THP1-NF-κB-LUC cells, LPS-stimulated secreted luciferase; format: cell-based; details: read-out: IC50 (NF-κB assay)
Summary of the method: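 THP1-NF-κB-LUC cells (25k/well) were pretreated with compounds for 2 h, then stimulated with LPS (10 ng/mL) for 18 h. Secreted luciferase was measured and normalized to vehicle, and IC50 was fitted from the concentration series.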

TNF release = test: TNF assay: TNF release from LPS-stimulated human PBMCs (TNF ELISA); format: cell-based; details: PBMC, read-out: IC50 (TNF assay)
Summary of the method: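 TNF ELISA on supernatants read-out; cells were 10k human PBMCs/well given LPS at 10 ng/mL for 18 h after a 2 h compound pre-incubation across a concentration series, with IC50 derived for suppression of TNF secretion.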

[1] = THP1-NF-κB-LUC cells, LPS-stimulated
[2] = LPS-stimulated human PBMCs, TNF ELISA
[3] = THP1-NF-κB-LUC cells, compounds 2 hours before LPS (10 ng/mL) for 18 hours, secreted luciferase
[4] = human PBMCs, compounds 2 hours before LPS (10 ng/ml) for 18 hours, supernatant TNF ELISA

Row | SMILES | IC50 (NF-κB; [1]) [µM] | IC50 (TNF release; [2]) [µM] | IC50 (NF-κB; [3]) [µM] | IC50 (TNF release; [4]) [µM] | further results
1 | CCc1ccc(NS(=O)(=O)c2cc(Br)cc3c2OCCC(=O)N3)cc1 [BC19686] | < 0.1 | > 10 |  |  | 
2 | Fc1ccc(-c2nc3ccc(-c4cccnc4)cc3nc2-c2ccc(F)cc2)cc1 [BC19242] | 0.1 to 1 | > 10 |  |  | 
3 | O=S(=O)(c1ccc(Cl)cc1)c1cnccc1O [BC19456] |  |  | > 10 | > 10 | 
4 | O=C1COc2c(cc(Cl)cc2S(=O)(=O)Nc2ccc(OC(F)(F)F)cc2)N1 [BC19172] |  |  | < 0.1 | > 10 | 
5 | Cn1cc(-c2ccc3nc(-c4ccc(F)cc4)c(-c4ccc(F)cc4)nc3c2)cn1 [BC19302] | 1 to 10 | > 10 |  |  | 
6 | COCCS(=O)(=O)c1oc(-c2ccccc2)nc1S(=O)(=O)c1ccc(F)c(F)c1 [BC19276] | 0.1 to 1 | < 0.1 |  |  | 
7 | CCC1Oc2cc(S(=O)(=O)Nc3ccc(C(C)C)cc3)c(Cl)cc2NC1=O (centres unmarked) [BC19210] |  |  | < 0.1 | > 10 | 
8 | CN1CCN(C(=O)c2ccc3nc(C(F)(F)F)c(-c4ccccc4F)nc3c2)CC1 [BC19106] | > 10 | > 10 |  |  | 
9 | O=S(=O)(c1ccc(Cl)cc1)c1nc(-c2cccc(F)c2)sc1S(=O)(=O)C1CCCCC1 [BC19583] | > 10 | > 10 |  |  | 
10 | N#Cc1ccc2nc(-c3ccc(F)cc3)c(-c3ccc(F)cc3)nc2c1 [BC19192] | 0.1 to 1 | > 10 |  |  | 
11 | Cc1ccc(NS(=O)(=O)c2cc(Br)cc3c2OCCNC3=O)cc1F [BC19552] | 0.1 to 1 | > 10 |  |  | 
12 | CCc1ccc(NS(=O)(=O)c2cc3c(cc2Br)NC(=O)C(CC(C)C)O3)cc1 (centres unmarked) [BC19764] |  |  | 1 to 10 | > 10 | 
13 | O=C1CCOc2cc(S(=O)(=O)Nc3ccc(F)cc3F)c(Br)cc2N1 [BC19693] | > 10 | > 10 |  |  | 
14 | O=C1COc2c(cc(Br)cc2S(=O)(=O)NCCc2ccc(OC(F)(F)F)cc2)N1 [BC19383] |  |  | > 10 | > 10 | 
15 | Cn1cnnc1-c1ccc2nc(-c3ccc(F)cc3F)c(-c3ccccc3)nc2c1 [BC19444] | 0.1 to 1 | > 10 |  |  | 
16 | Cc1ccc(NS(=O)(=O)c2cc(S(C)(=O)=O)cc3c2OCC(=O)N3)cc1Cl [BC19486] |  |  | < 0.1 | > 10 | 
17 | COCC[S+]([O-])c1sc(-c2ccc3ccccc3c2)nc1S(=O)(=O)c1ccc(Cl)cc1 (centres unmarked) [BC19677] | 1 to 10 | 1 to 10 |  |  | 
18 | CCc1cccc(NS(=O)(=O)c2cc(Cl)cc3c2OC(C)C(=O)N3)c1 (centres unmarked) [BC19712] |  |  | < 0.1 | > 10 | 
19 | CC1Oc2cc(S(=O)(=O)Nc3ccc(OC(F)(F)F)cc3)c(Cl)cc2NC1=O (centres unmarked) [BC19354] |  |  | < 0.1 | > 10 | 
20 | COCC[S+]([O-])c1sc(-c2cccnc2)nc1S(=O)(=O)c1ccc(Cl)cc1 (centres unmarked) [BC19679] | 1 to 10 | 0.1 to 1 |  |  | 
21 | Cc1ccncc1-c1ccc2nc(-c3ccc(F)cc3)c(-c3ccc(F)cc3)nc2c1 [BC19304] | 1 to 10 | > 10 |  |  | 
22 | CS(=O)(=O)c1sc(-c2ccc(Cl)cc2)nc1S(=O)(=O)c1ccc(F)cc1 [BC19534] | 1 to 10 | 1 to 10 |  |  | 
23 | CCCS(=O)(=O)c1oc(-c2ccccc2)nc1S(=O)(=O)c1ccc(C)cc1 [BC19264] | < 0.1 | 0.1 to 1 |  |  | 

Row | SMILES | IC50 (NF-κB; [1]) [µM] | IC50 (TNF release; [2]) [µM] | IC50 (NF-κB; [3]) [µM] | IC50 (TNF release; [4]) [µM] | further results
24 | COCC[S+]([O-])c1sc(-c2ccccc2)nc1S(=O)(=O)c1ccc(Cl)cc1 (centres unmarked) [BC19526] | 1 to 10 | 1 to 10 |  |  | 
25 | CC(C)C[S+]([O-])c1sc(-c2cccc(F)c2)nc1S(=O)(=O)c1ccc(F)cc1 (centres unmarked) [BC19588] | 1 to 10 | > 10 |  |  | 
26 | CCS(=O)(=O)c1cc2c(c(S(=O)(=O)Nc3ccc(C#N)cc3)c1)OCC(=O)N2 [BC19548] |  |  | < 0.1 | > 10 | 
27 | CC(C)[S+]([O-])c1sc(-c2ccccc2F)nc1S(=O)(=O)c1ccc(Cl)cc1 (centres unmarked) [BC19629] | > 10 | > 10 |  |  | 
28 | C#CCNC(=O)c1ccc2nc(-c3cccc(N(C)C)c3)c(-c3cccc(N(C)C)c3)nc2c1 [BC19499] | 1 to 10 | > 10 |  |  | 
29 | Cc1ccc(NS(=O)(=O)c2cc(Br)cc3c2OC(C)C(=O)N3)cc1Cl (centres unmarked) [BC19225] |  |  | 0.1 to 1 | > 10 | 
30 | CC(C)[S+]([O-])c1sc(-c2cccc(F)c2)nc1S(=O)(=O)c1ccc(Cl)cc1 (centres unmarked) [BC19620] | > 10 | > 10 |  |  | 
31 | NC(=O)c1ccc2nc(-c3ccc(F)cc3)c(C(F)(F)F)nc2c1 [BC19117] | > 10 | > 10 |  |  | 
32 | CC1Oc2c(cc(Br)cc2S(=O)(=O)Nc2ccc(C(C)C)cc2)N(C)C1=O (centres unmarked) [BC19793] |  |  | < 0.1 | > 10 | 
33 | CCc1cccc(NS(=O)(=O)c2cc(Br)cc3c2OC(C)C(=O)N3)c1 (centres unmarked) [BC19288] |  |  | < 0.1 | > 10 | 
34 | O=C1COc2cc(S(=O)(=O)Nc3ccc(F)cc3F)c(Br)cc2N1 [BC19166] |  |  | < 0.1 | > 10 | 
35 | O=C(O)c1ccc2nc(-c3ccc(F)cc3)c(-c3cccs3)nc2c1 [BC19156] |  |  |  |  | IC50 (NF-κB): 1 to 10 µM; IC50 (TNF release; Homo sapiens): > 10 µM
36 | CC(C)c1ccc(NS(=O)(=O)c2cc(Cl)cc3c2OCC(=O)N3)cc1 [BC19174] |  |  | < 0.1 | > 10 | 
37 | Cc1ccc([S+]([O-])c2ccc3c(=O)[nH]ccc3c2)cc1 (centres unmarked) [BC19517] |  |  | > 10 | > 10 | 
38 | CC1Oc2cc(S(=O)(=O)Nc3ccc(F)c(F)c3)c(Br)cc2N(C)C1=O (centres unmarked) [BC19786] |  |  | 1 to 10 | > 10 | 
39 | O=c1c(S(=O)(=O)c2ccc(F)c(F)c2)c[nH]c2ccncc12 [BC19201] |  |  | > 10 | > 10 | 
40 | O=C(NCCO)c1ccc2nc(-c3ccc(Cl)cc3)c(-c3ccc(Cl)cc3)nc2c1 [BC19452] | 0.1 to 1 | > 10 |  |  | 
41 | C[S+]([O-])c1[nH]nc(N)c1S(=O)(=O)c1ccccc1 (centres unmarked) [BC19338] | > 10 | > 10 |  |  | 
42 | O=S(=O)(c1ccc(Cl)cc1)c1nc(-c2cccc(F)c2)oc1S(=O)(=O)C1CCCCC1 [BC19412] | 0.1 to 1 | 0.1 to 1 |  |  | 
43 | CC(C)CC1Oc2cc(S(=O)(=O)Nc3ccc(C(C)C)cc3)c(Br)cc2NC1=O (centres unmarked) [BC19766] |  |  | 1 to 10 | 1 to 10 | 
44 | CCC1Oc2c(cc(Br)cc2S(=O)(=O)Nc2ccc(C)cc2)NC1=O (centres unmarked) [BC19234] |  |  | < 0.1 | 1 to 10 | 
45 | CC(C)CC1Oc2c(cc(Br)cc2S(=O)(=O)Nc2cccc(Cl)c2)NC1=O (centres unmarked) [BC19775] |  |  | < 0.1 | > 10 | 
46 | CN(C)CC[S+]([O-])c1sc(-c2ccccc2)nc1S(=O)(=O)c1ccc(Cl)cc1 (centres unmarked) [BC19474] | 1 to 10 | > 10 |  |  | 

Row | SMILES | IC50 (NF-κB; [1]) [µM] | IC50 (TNF release; [2]) [µM] | IC50 (NF-κB; [3]) [µM] | IC50 (TNF release; [4]) [µM] | further results
47 | O=c1[nH]ccc2cc(S(=O)(=O)c3ccc(Cl)cc3)ccc12 [BC19516] |  |  | > 10 | > 10 | 
48 | CCc1cccc(NS(=O)(=O)c2cc(Br)cc3c2OC(C)C(=O)N3C)c1 (centres unmarked) [BC19900] |  |  | 0.1 to 1 | > 10 | 
49 | O=S(=O)(c1ccc(Cl)cc1)c1nc(-c2cccc(F)c2)sc1[S+]([O-])CC1CC1 (centres unmarked) [BC19478] | > 10 | 1 to 10 |  |  | 
50 | CCCS(=O)(=O)c1oc(-c2cccc(F)c2)nc1S(=O)(=O)c1ccc(Cl)cc1 [BC19345] | 0.1 to 1 | 0.1 to 1 |  |  | 
51 | CC(C)[S+]([O-])c1snc(-c2ccc(F)cc2)c1S(=O)(=O)c1ccc(Cl)cc1 (centres unmarked) [BC19727] | 1 to 10 | 1 to 10 |  |  | 
52 | CCS(=O)(=O)c1cc2c(c(S(=O)(=O)Nc3ccc(F)cc3)c1)OCC(=O)N2 [BC19443] |  |  | < 0.1 | > 10 | 
53 | CC(C)C[S+]([O-])c1sc(-c2ccccc2F)nc1S(=O)(=O)c1ccc(Cl)cc1 (centres unmarked) [BC19630] | > 10 | 1 to 10 |  |  | 
54 | O=S(=O)(CC1CC1)c1sc(-c2cccc(F)c2)nc1S(=O)(=O)c1ccc(Cl)cc1 [BC19592] | 1 to 10 | 1 to 10 |  |  | 
55 | CCS(=O)(=O)c1cc2c(c(S(=O)(=O)Nc3ccc(C)c(F)c3)c1)OCC(=O)N2 [BC19436] |  |  | < 0.1 | > 10 | 
56 | O=C(Nc1ccc2nc(-c3ccc(F)cc3)c(-c3ccc(F)cc3)nc2c1)NC1CC1 [BC19568] | 0.1 to 1 | > 10 |  |  | 
57 | CCC[S+]([O-])c1oc(-c2cccc(F)c2)nc1S(=O)(=O)c1ccc(Cl)cc1 (centres unmarked) [BC19344] | 0.1 to 1 | 0.1 to 1 |  |  | 
58 | Cn1cnnc1-c1cnc2nc(-c3ccc(F)cc3)c(-c3ccc(F)cc3)nc2c1 [BC19496] | < 0.1 | > 10 |  |  | 
59 | CC1Oc2cc(S(=O)(=O)Nc3cccc(Cl)c3)c(Br)cc2N(C)C1=O (centres unmarked) [BC19905] |  |  | 1 to 10 | > 10 | 
60 | CCC1Oc2c(cc(Br)cc2S(=O)(=O)NCc2ccc(OC(F)(F)F)cc2)NC1=O (centres unmarked) [BC19375] |  |  | < 0.1 | > 10 | 
61 | O=C1COc2c(cc(Br)cc2S(=O)(=O)NCc2ccc(C(F)(F)F)cc2)N1 [BC19382] |  |  | > 10 | > 10 | 
62 | CCC1Oc2cc(S(=O)(=O)Nc3ccccc3)c(Cl)cc2NC1=O (centres unmarked) [BC19737] |  |  | 0.1 to 1 | > 10 | 
63 | CCC1Oc2cc(S(=O)(=O)Nc3ccc(Cl)cc3)c(Cl)cc2NC1=O (centres unmarked) [BC19739] |  |  | < 0.1 | > 10 | 
64 | CCC1Oc2cc(S(=O)(=O)Nc3ccc(F)cc3)c(Cl)cc2NC1=O (centres unmarked) [BC19731] |  |  | 0.1 to 1 | > 10 | 
65 | CCC1Oc2cc(S(=O)(=O)NCc3ccc(C(F)(F)F)cc3)c(Br)cc2NC1=O (centres unmarked) [BC19370] |  |  | > 10 | > 10 | 
66 | COCCS(=O)(=O)c1oc(-c2ccccc2)nc1S(=O)(=O)c1ccc(Cl)cc1 [BC19331] | < 0.1 | < 0.1 |  |  | 
67 | CC(C)S(=O)(=O)[C@@H]1CN(Cc2ccccc2)C[C@H]1S(=O)(=O)c1ccc(F)cc1 (racemic) [BC19643] | > 10 | > 10 |  |  | 
